Calls of active or inactive are those of the source. The rule behind the calls is not given here.
Tests used:
[1] = test system: COLO 205; test: Antiproliferative activity against human COLO205 cells assessed as growth inhibition after 48 hrs by sulforhodamine B assay; type: functional; conditions: COLO 205, 48 h
[2] = Selectivity index, ratio of IC50 for human WI38 cells to GI50 for human NCI60 cells
[3] = Haemolytic activity in human erythrocytes assessed as induction of hemolysis at 2.5 mM after 30 mins relative to H202; type: cell-based, Erythrocyte; conditions: erythrocytes, read-out: Activity
[4] = test system: HCT-116; test: Induction of apoptosis in human HCT116 cells assessed as increase in caspase 3 mRNA expression at 100 nM after 6 hrs hrs by SYBR green dye-based qRT-PCR analysis relative to control; type: functional
[5] = test system: A498; test: Antiproliferative activity against human A498 cells assessed as growth inhibition after 48 hrs by sulforhodamine B assay; type: functional; conditions: A498, 48 h
[6] = test system: EKVX; test: Antiproliferative activity against human EKVX cells assessed as growth inhibition after 48 hrs by sulforhodamine B assay; type: functional
[7] = test system: LOX IMVI; test: Antiproliferative activity against human LOXIMVI cells assessed as growth inhibition after 48 hrs by sulforhodamine B assay; type: functional
[8] = Antioxidant activity assessed as DPPH radical scavenging activity incubated in dark for 30 mins by spectrophotometric method relative to ascorbic acid; type: functional
[9] = test system: NCI-H522; test: Antiproliferative activity against human NCI-H522 cells assessed as growth inhibition after 48 hrs by sulforhodamine B assay; type: functional; conditions: NCI-H522, 48 h
[10] = test system: T47D; test: Antiproliferative activity against human T47D cells assessed as growth inhibition after 48 hrs by sulforhodamine B assay; type: functional
[11] = test system: NCI-H322M; test: Antiproliferative activity against human NCI-H322M cells assessed as growth inhibition after 48 hrs by sulforhodamine B assay; type: functional
[12] = test system: WI-38; test: Cytotoxicity activity against human WI38 cells assessed as reduction in cell viability measured after 48 hrs by MTT assay; type: cell-based; conditions: WI-38, 48 h
[13] = test system: KM12; test: Antiproliferative activity against human KM12 cells assessed as growth inhibition after 48 hrs by sulforhodamine B assay; type: functional; conditions: KM12, 48 h
[14] = test system: HCC 2998; test: Antiproliferative activity against human HCC2998 cells assessed as growth inhibition after 48 hrs by sulforhodamine B assay; type: functional; conditions: HCC 2998, 48 h
[15] = test system: UACC-62; test: Antiproliferative activity against human UACC62 cells assessed as growth inhibition after 48 hrs by sulforhodamine B assay; type: functional; conditions: UACC-62, 48 h
[16] = test system: SW-620; test: Antiproliferative activity against human SW620 cells assessed as growth inhibition after 48 hrs by sulforhodamine B assay; type: functional; conditions: SW-620, 48 h
[17] = test system: HOP-62; test: Antiproliferative activity against human HOP62 cells assessed as growth inhibition after 48 hrs by sulforhodamine B assay; type: functional; conditions: HOP-62, 48 h
[18] = test system: HCT-116; test: […] in CDK1 mRNA expression in human HCT116 cells at 100 nM after 6 hrs hrs by SYBR green dye-based qRT-PCR analysis relative to control; type: functional
[19] = test system: BT-549; test: Antiproliferative activity against human BT549 cells assessed as growth inhibition after 48 hrs by sulforhodamine B assay; type: functional; conditions: BT-549, 48 h
[20] = test system: MDA-MB-231; test: Antiproliferative activity against human MDA-MB-231/ATCC cells assessed as growth inhibition after 48 hrs by sulforhodamine B assay; type: functional; conditions: MDA-MB-231, 48 h
[21] = test system: NCI-H460; test: Antiproliferative activity against human NCI-H460 cells assessed as growth inhibition after 48 hrs by sulforhodamine B assay; type: functional; conditions: NCI-H460, 48 h
[22] = test system: SR; test: Antiproliferative activity against human SR cells assessed as growth inhibition after 48 hrs by sulforhodamine B assay; type: functional
[23] = test system: NCI/ADR-RES; test: Antiproliferative activity against human NCI-ADR-RES cells assessed as growth inhibition after 48 hrs by sulforhodamine B assay; type: functional
[24] = Antioxidant activity assessed as ABTS radical scavenging activity by spectrophotometric method relative to ascorbic acid; type: functional
[25] = test system: MDA-MB-435; test: Antiproliferative activity against human MDA-MB-435 cells assessed as growth inhibition after 48 hrs by sulforhodamine B assay; type: functional; conditions: MDA-MB-435, 48 h
[26] = Antioxidant activity assessed as hydroxyl radical scavenging activity after 1 hr by salicylic acid-based Fenton reaction assay; type: functional
[27] = Haemolytic activity in human erythrocytes assessed as induction of hemolysis at 5 mM after 30 mins relative to H202; type: cell-based, Erythrocyte; conditions: read-out: Activity
[28] = test system: UACC-257; test: Antiproliferative activity against human UACC257 cells assessed as growth inhibition after 48 hrs by sulforhodamine B assay; type: functional; conditions: UACC-257, 48 h
[29] = test system: Malme-3M; test: Antiproliferative activity against human MALME-3M cells assessed as growth inhibition after 48 hrs by sulforhodamine B assay; type: functional
[30] = test system: SNB-19; test: Antiproliferative activity against human SNB19 cells assessed as growth inhibition after 48 hrs by sulforhodamine B assay; type: functional; conditions: SNB-19, 48 h
[31] = test system: Erythrocyte; test: Haemolytic activity in human erythrocytes assessed as induction of hemolysis at 0.625 mM after 30 mins relative to H202; type: cell-based; conditions: erythrocyte, 0.5 h, 625 µM
[32] = test system: OVCAR-3; test: Antiproliferative activity against human OVCAR3 cells assessed as growth inhibition after 48 hrs by sulforhodamine B assay; type: functional; conditions: OVCAR-3, 48 h
[33] = test system: K562; test: Antiproliferative activity against human K562 cells assessed as growth inhibition after 48 hrs by sulforhodamine B assay; type: functional, cell-based; conditions: K562, 48 h, read-out: IC50
[34] = test system: IGROV-1; test: Antiproliferative activity against human IGROV1 cells assessed as growth inhibition after 48 hrs by sulforhodamine B assay; type: functional; conditions: IGROV-1, 48 h
[35] = test system: Panel NCI-60 (60 carcinoma cell lines); test: Antiproliferative activity against human NCI60 cells assessed as growth inhibition after 48 hrs by sulforhodamine B assay; type: functional
[36] = test system: DU-145; test: Antiproliferative activity against human DU145 cells assessed as growth inhibition after 48 hrs by sulforhodamine B assay; type: functional; conditions: DU-145, 48 h
[37] = test system: HOP-92; test: Antiproliferative activity against human HOP92 cells assessed as growth inhibition after 48 hrs by sulforhodamine B assay; type: functional; conditions: HOP-92, 48 h

Structure (SMILES) | GI50 [1] | Selectivity Index [2] | hemolysis at 0.5 h, 2500 µM [3] | fold change (FC) [4] | GI50 [5] | GI50 [6] | GI50 [7] | fold change (FC) [8] | GI50 [9] | GI50 [11] | IC50 [12] | GI50 [13] | GI50 [14] | GI50 [15] | GI50 [16] | GI50 [17] | fold change (FC) [18] | GI50 [19] | GI50 [20] | GI50 [21] | other results
N=C(N)c1ccc(-c2ccc(-c3ccc(F)cc3)s2)s1 | 1320 nM | 7.5 | 14% | 3.71 | 1950 nM | 1470 nM | 1620 nM | 0.5 | 1820 nM | 1630 nM | 13300 nM | 1710 nM | 1730 nM | 1940 nM | 1740 nM | 1640 nM | 0.89 | 1890 nM | 1740 nM | 1890 nM | GI50 [10]: 1740 nM; GI50 [22]: 1170 nM; GI50 [23]: 1790 nM; fold change (FC) [24]: 0.5; GI50 [25]: 1590 nM; Activity [26]: Active; hemolysis at 0.5 h, 5000 µM [27]: 59.7%; GI50 [28]: 2190 nM; GI50 [29]: 1810 nM; GI50 [30]: 1970 nM; Activity [31]: Non-Toxic; GI50 [32]: 1780 nM; IC50 [33]: 1210 nM; GI50 [34]: 1730 nM; GI50 [35]: 1770 nM; LC50 [35]: 12000 nM; TGI [35]: 3540 nM; GI50 [36]: 1720 nM
COc1ccc(-c2ccc(-c3ccc(C(=N)N)o3)o2)cc1 | 1250 nM | 41.8 | 8.1% | 2.67 | 1760 nM | 2790 nM | 1480 nM | 0.7 | 1090 nM | 2260 nM | 72900 nM | 590 nM | 1580 nM | 1290 nM | 530 nM | 1500 nM | 1.02 | 4550 nM | 1900 nM | 1170 nM | GI50 [10]: 1530 nM; GI50 [22]: 420 nM; GI50 [23]: 1880 nM; fold change (FC) [24]: 0.7; GI50 [25]: 290 nM; Activity [26]: Active; hemolysis at 0.5 h, 5000 µM [27]: 36.3%; GI50 [28]: 11100 nM; GI50 [29]: 3970 nM; GI50 [30]: 1990 nM; Activity [31]: Non-Toxic; GI50 [32]: 920 nM; IC50 [33]: 490 nM; GI50 [34]: 1730 nM; GI50 [35]: 1740 nM; LC50 [35]: 20400 nM; TGI [35]: 5890 nM; GI50 [36]: 1910 nM
N=C(N)c1ccc(-c2ccc(-c3ccccc3)o2)o1 | 1780 nM | 28.6 | 7% | 2.33 | 3030 nM | 2340 nM | 1700 nM | 0.3 | 1940 nM | 2120 nM | 68700 nM | 2610 nM | 1610 nM | 1930 nM | 1790 nM | 3590 nM | 0.97 | 4130 nM | 2040 nM | 2450 nM | GI50 [37]: 1850 nM; GI50 [23]: 2820 nM; fold change (FC) [24]: 0.4; GI50 [25]: 990 nM; Activity [26]: Active; hemolysis at 0.5 h, 5000 µM [27]: 30.1%; GI50 [28]: 2520 nM; GI50 [29]: 1750 nM; GI50 [30]: 3010 nM; Activity [31]: Non-Toxic; GI50 [32]: 3130 nM; IC50 [33]: 660 nM; GI50 [34]: 2890 nM; GI50 [35]: 2400 nM; LC50 [35]: 22400 nM; TGI [35]: 6910 nM; GI50 [36]: 3300 nM
